Source: patent US20190100534A1, “Cephem Compounds with Latent Reactive Groups” (Gladius Pharmaceuticals, Inc., priority 2017, published 2019)

Assays:
Assay in all cases: MIC determination
[1] = system: Pseudomonas aeruginosa PA (RR-2); type: cell-based; conditions: Pseudomonas aeruginosa; PA (RR-2); CAMH broth, 20 μM Apo-Transferrin, 37° C., 18 hours; read-out: Minimum Inhibitory Concentrations, PA (RR-2)
Summary of the method: (§1)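 Growth inhibition was judged by well clarity after 18 h at 37 °C in transferrin-supplemented (20 μM apo form) CAMH. Standardized suspensions (0.08-0.1 OD600) were added within 30 min of preparation.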

[2] = system: Pseudomonas aeruginosa PA (URMC-2); type: cell-based; conditions: Pseudomonas aeruginosa; PA (URMC-2); CAMH broth, 20 μM Apo-Transferrin, 37° C., 18 hours; read-out: Minimum Inhibitory Concentrations, PA (URMC-2)
Summary of the method: as §1

[3] = system: Pseudomonas aeruginosa PA-RR-(980151052); type: cell-based; conditions: Pseudomonas aeruginosa; PA-RR-(980151052); CAMH broth, 20 μM Apo-Transferrin, 37° C., 18 hours; read-out: Minimum Inhibitory Concentrations, PA-RR-(980151052)
Summary of the method: as §1

[4] = system: Pseudomonas aeruginosa PA-RR-(98023895); type: cell-based; conditions: Pseudomonas aeruginosa; PA-RR-(98023895); CAMH broth, 20 μM Apo-Transferrin, 37° C., 18 hours; read-out: Minimum Inhibitory Concentrations, PA-RR-(98023895)
Summary of the method: as §1

[5] = system: Pseudomonas aeruginosa PA-RR-(G7305586); type: cell-based; conditions: Pseudomonas aeruginosa; PA-RR-(G7305586); CAMH broth, 20 μM Apo-Transferrin, 37° C., 18 hours; read-out: Minimum Inhibitory Concentrations, PA-RR-(G7305586)
Summary of the method: as §1

[6] = system: Pseudomonas aeruginosa PA-RR-(purple Fre D); type: cell-based; conditions: Pseudomonas aeruginosa, CAMH broth, 20 μM Apo-Transferrin, 37° C., 18 hours, read-out: Minimum Inhibitory Concentrations, PA-RR-(purple Fre D)
Summary of the method: as §1

[7] = system: A. baumannii (JMI OXA-58); type: cell-based, Acinetobacter baumannii; conditions: Acinetobacter baumannii, class D carbapenemase producer, CAMH broth, 20 μM Apo-Transferrin, 37° C., 18 hours, read-out: Minimum Inhibitory Concentrations, A. baumannii (JMI OXA-58)
Description: (§2) Sterile technique was used throughout these experiments. Suspensions of organisms were removed from storage (−80° C.) and partially thawed. Partially thawed organisms (1 μL) were inoculated into 3 mL sterile LB Broth in a sterile culture tube and capped, then cultured at 37° C. with shaking for 4-5 hours until the optical density at 600 nm (OD600) was greater than 0.1 on a single beam spectrophotometer.
(§3) The concentration of organisms was adjusted to 0.08-0.1 OD600 (0.5 McFarland units) by dilution with sterile cation-adjusted Meuller-Hinton (CAMH) broth. The suspensions were used within 30 minutes of preparation.
(§4) A stock solution was made of each test compound by measuring 6.4 mg of the compound on an analytical balance and dissolving it in DMSO (1 mL) to get a transparent solution. The solutions were stored at −20° C. and thawed prior to use.
(§5) Sterile CAMH broth (200 μL) containing 20 μM Apo-Transferrin was pipetted into the first row of 8 columns of a sterile, round-bottomed, transparent, 96-well microplate using an 8-channel pipette equipped with sterile tips. One hundred μL was pipetted into the wells of the remaining 11 rows.
(§6) With an 8-channel pipette equipped with sterile tips, 100 μL of the first row solution was transferred to the second row and mixed. The process was repeated for the second to third rows and continued through row 11. One hundred μL from row 11 was removed and discarded so that all 12 rows contained 100 μL. Row 12 contained no compound and rows 1-11 contained 64, 32, 16, 8, 4, 2, 1, 0.5, 0.25, 0.125, […] of a given compound.
(§7) Inoculant suspensions (0.5 μL) were added to the 12 wells of each column. The plates were then covered and incubated at 37° C. overnight for 18 hours.
(§8) For each organism the MIC was determined by identifying the transparent well with the lowest test compound concentration.

A. baumannii = type: cell-based, Acinetobacter baumannii; conditions: Acinetobacter baumannii; A. baumannii; CAMH broth, 20 μM Apo-Transferrin, 37° C., 18 hours; read-out: Minimum Inhibitory Concentrations, A. baumannii
Description: as §2, §3, §4, §5, §6, §7, §8

EC (RR -1) = type: cell-based, Escherichia coli; conditions: CAMH broth, 20 μM Apo-Transferrin, 37° C., 18 hours
Description: as §2, §3, §4, §5, §6, §7, §8

EC (RR -2) = type: cell-based, Escherichia coli; conditions: CAMH broth, 20 μM Apo-Transferrin, 37° C., 18 hours
Description: as §2, §3, §4, §5, §6, §7, §8

EC (URMC-1) = type: cell-based, Escherichia coli; conditions: Escherichia coli, CAMH broth, 20 μM Apo-Transferrin, 37° C., 18 hours, read-out: Minimum Inhibitory Concentrations, EC (URMC-1)
Description: as §2, §3, §4, §5, §6, §7, §8

EC (URMC-2) = type: cell-based, Escherichia coli; conditions: Escherichia coli, CAMH broth, 20 μM Apo-Transferrin, 37° C., 18 hours, read-out: Minimum Inhibitory Concentrations, EC (URMC-2)
Description: as §2, §3, §4, §5, §6, §7, §8

EC (URMC-3) = type: cell-based, Escherichia coli; conditions: Escherichia coli, CAMH broth, 20 μM Apo-Transferrin, 37° C., 18 hours, read-out: Minimum Inhibitory Concentrations, EC (URMC-3)
Description: as §2, §3, §4, §5, §6, §7, §8

EC(ATCC NDM-1) = type: cell-based, Escherichia coli; conditions: Escherichia coli, CAMH broth, 20 μM Apo-Transferrin, 37° C., 18 hours, read-out: Minimum Inhibitory Concentrations, EC(ATCC NDM-1)
Description: as §2, §3, §4, §5, §6, §7, §8

EC(JMI OXA-48) = type: cell-based, Escherichia coli; conditions: Escherichia coli, CAMH broth, 20 μM Apo-Transferrin, 37° C., 18 hours, read-out: Minimum Inhibitory Concentrations, EC(JMI OXA-48)
Description: as §2, §3, §4, §5, §6, §7, §8

EC(KB1 CTX-M-15) = type: cell-based, Escherichia coli; conditions: Escherichia coli, CAMH broth, 20 μM Apo-Transferrin, 37° C., 18 hours, read-out: Minimum Inhibitory Concentrations, EC(KB1 CTX-M-15)
Description: as §2, §3, §4, §5, §6, §7, §8

EC(KB2 CTX-M-15) = type: cell-based, Escherichia coli; conditions: Escherichia coli, CAMH broth, 20 μM Apo-Transferrin, 37° C., 18 hours, read-out: Minimum Inhibitory Concentrations, EC(KB2 CTX-M-15)
Description: as §2, §3, §4, §5, §6, §7, §8

KP (ATCC KPC-3) = type: cell-based, Klebsiella pneumoniae; conditions: CAMH broth, 20 μM Apo-Transferrin, 37° C., 18 hours
Description: as §2, §3, §4, §5, §6, §7, §8

KP (GJ 5659 TEM-26) = type: cell-based, Klebsiella pneumoniae; conditions: CAMH broth, 20 μM Apo-Transferrin, 37° C., 18 hours
Description: as §2, §3, §4, §5, §6, §7, §8

KP (RR -1) = type: cell-based, Klebsiella pneumoniae; conditions: CAMH broth, 20 μM Apo-Transferrin, 37° C., 18 hours
Description: as §2, §3, §4, §5, §6, §7, §8

KP (URMC-1) = type: cell-based, Klebsiella pneumoniae; conditions: CAMH broth, 20 μM Apo-Transferrin, 37° C., 18 hours
Description: as §2, §3, §4, §5, §6, §7, §8

KP (URMC-2) = type: cell-based, Klebsiella pneumoniae; conditions: CAMH broth, 20 μM Apo-Transferrin, 37° C., 18 hours
Description: as §2, §3, §4, §5, §6, §7, §8

KP (URMC-3) = type: cell-based, Klebsiella pneumoniae; conditions: CAMH broth, 20 μM Apo-Transferrin, 37° C., 18 hours
Description: as §2, §3, §4, §5, §6, §7, §8

EA (URMC -3) = type: cell-based; conditions: CAMH broth, 20 μM Apo-Transferrin, 37° C., 18 hours
Description: as §2, §3, §4, §5
To each well of the first row was pipetted 2.0 μL of the 6.4 mg/mL stock test compound stock solution to give 1:100 dilutions and a final concentration of 64 μg/mL and mixed.
as §6, §7, §8

PM (RR -1) = type: cell-based, Proteus mirabilis; conditions: CAMH broth, 20 μM Apo-Transferrin, 37° C., 18 hours
Description: as §2, §3, §4, §5, §6, §7, §8

CF (RR -1) = type: cell-based, Citrobacter freundii; conditions: CAMH broth, 20 μM Apo-Transferrin, 37° C., 18 hours
Description: as §2, §3, §4, §5, §6, §7, §8

ENC (ATCC NDM-1) = type: cell-based, Enterobacter cloacae; conditions: CAMH broth, 20 μM Apo-Transferrin, 37° C., 18 hours
Description: as §2, §3, §4, §5, §6, §7, §8

Row | SMILES | MIC [1] | MIC [2] | MIC [3] | MIC [4] | MIC [5] | MIC [6] | MIC [7] | MIC (A. baumannii) | Mimimum Inhibitory Concentrations, EC (RR -1) (EC (RR -1)) | Mimimum Inhibitory Concentrations, EC (RR -2) (EC (RR -2)) | MIC (EC (URMC-1)) | MIC (EC (URMC-2)) | MIC (EC (URMC-3)) | MIC (EC(ATCC NDM-1)) | MIC (EC(JMI OXA-48)) | MIC (EC(KB1 CTX-M-15)) | MIC (EC(KB2 CTX-M-15)) | Minimum Inhibitory Concentrations, KP (ATCC KPC-3) (KP (ATCC KPC-3)) | Minimum Inhibitory Concentrations, KP (GJ 5659 TEM-26) (KP (GJ 5659 TEM-26)) | Mimimum Inhibitory Concentrations, ENC (ATCC NDM-1) (ENC (ATCC NDM-1)) | other results
1 | CC(C)(O/N=C(\C(=O)N[C@@H]1C(=O)N2C(C(=O)O)=C(C=Cc3ccc(C[N+]4(C)CCc5cc(O)c(O)cc5C4)cc3)CS[C@H]12)c1csc(N)n1)C(=O)O (mixture of isomers) [Compound 407, 2-(4-((E/Z)-2-((6R,7R)-7-((Z)-2-(2-aminothiazol-4-yl)-2-(((2-carboxypropan-2-yl)oxy)imino)acetamido)-2-carboxy-8-oxo-5-thia-1-azabicyclo[4.2.0]oct-2-en-3 yl)vinyl)benzyl)-6,7-dihydroxy-2-methyl-1,2,3,4-tetrahydroisoquinolin-2-ium] | 2 µg/mL | 4 µg/mL | 0.06 µg/mL | 0.13 µg/mL | 0.03 µg/mL | 0.06 µg/mL | 16 µg/mL | 2 µg/mL | 0.13 microgram/mL | 0.13 microgram/mL | 0.25 µg/mL | 0.25 µg/mL | ≤ 0.06 µg/mL | > 64 µg/mL | 16 µg/mL | > 64 µg/mL | > 64 µg/mL | 64 microgram/mL | 2 microgram/mL | >64 microgram/mL | Mimimum Inhibitory Concentrations, KP (RR -1) (KP (RR -1)): 0.5 microgram/mL; Minimum Inhibitory Concentrations, KP (URMC-1) (KP (URMC-1)): 0.13 microgram/mL; Minimum Inhibitory Concentrations, KP (URMC-2) (KP (URMC-2)): 0.25 microgram/mL; Minimum Inhibitory Concentrations, KP (URMC-3) (KP (URMC-3)): 0.13 microgram/mL; Mimimum Inhibitory Concentrations, EA (URMC -3) (EA (URMC -3)): 2 microgram/mL; Mimimum Inhibitory Concentrations, PM (RR -1) (PM (RR -1)): ≤0.06 microgram/mL; Mimimum Inhibitory Concentrations, CF (RR -1) (CF (RR -1)): 0.13 microgram/mL
2 | CC(C)(O/N=C(\C(=O)N[C@@H]1C(=O)N2C(C(=O)O)=C(C=Cc3ccc(C[n+]4ccc(-c5ccc(O)c(O)c5)cc4)cc3)CS[C@H]12)c1csc(N)n1)C(=O)O (mixture of isomers) [Compound 412, 1-(4-((E/Z)-2-((6R,7R)-7-((Z)-2-(2-aminothiazol-4-yl)-2-(((2-carboxypropan-2-yl)oxy)imino)acetamido)-2-carboxy-8-oxo-5-thia-1-azabicyclo[4.2.0]oct-2-en-3-yl)vinyl)benzyl)-4-(3,4-dihydroxyphenyl)pyridin-1-ium] | 2 µg/mL | 2 µg/mL | 4 µg/mL | 4 µg/mL | 16 µg/mL | 2 µg/mL | > 64 µg/mL | 8 µg/mL | 0.25 microgram/mL | ≤0.06 microgram/mL | 0.25 µg/mL | 4 µg/mL | ≤ 0.06 µg/mL | > 64 µg/mL | 2 µg/mL | 16 µg/mL | 32 µg/mL | >64 microgram/mL | 2 microgram/mL | >64 microgram/mL | Mimimum Inhibitory Concentrations, KP (RR -1) (KP (RR -1)): 0.5 microgram/mL; Minimum Inhibitory Concentrations, KP (URMC-1) (KP (URMC-1)): ≤0.06 microgram/mL; Minimum Inhibitory Concentrations, KP (URMC-2) (KP (URMC-2)): ≤0.06 microgram/mL; Minimum Inhibitory Concentrations, KP (URMC-3) (KP (URMC-3)): 0.25 microgram/mL; Mimimum Inhibitory Concentrations, EA (URMC -3) (EA (URMC -3)): ≤0.06 microgram/mL; Mimimum Inhibitory Concentrations, PM (RR -1) (PM (RR -1)): ≤0.06 microgram/mL; Mimimum Inhibitory Concentrations, CF (RR -1) (CF (RR -1)): ≤0.06 microgram/mL
3 | C#CC[N+]1(Cc2ccc(C=CC3=C(C(=O)O)N4C(=O)[C@@H](NC(=O)/C(=N\OC(C)(C)C(=O)O)c5csc(N)n5)[C@H]4SC3)cc2)CCc2cc(O)c(O)cc2C1 (mixture of isomers) [Compound 446, 2-(4-((E/Z)-2-((6R,7R)-7-((Z)-2-(2-aminothiazol-4-yl)-2-(((2-carboxypropan-2-yl)oxy)imino)acetamido)-2-carboxy-8-oxo-5-thia-1-azabicyclo[4.2.0]oct-2-en-3-yl)vinyl)benzyl)-6,7-dihydroxy-2-(prop-2-yn-1-yl)-1,2,3,4-tetrahydroisoquinolin-2-ium] | – | – | – | – | – | – | > 64 µg/mL | 2 µg/mL | – | – | – | – | – | > 64 µg/mL | 16 µg/mL | 64 µg/mL | > 64 µg/mL | 64 microgram/mL | 2 microgram/mL | >64 microgram/mL | –
